In a melting point compilation (Tetko et al.; mined from patent text by program, amines drawn as free bases though some values may be those of a salt):

First: CN(C(=O)Cc1ccc([N+](=O)[O-])cc1)C1c2ccccc2CCC1N1CCCC1 (stereo not given)
Second: O=C(CCc1ccc([N+](=O)[O-])cc1)NCCO
The melting point of the first is higher: 135 °C for the first, 122 to 125 °C for the second.

Compared with COc1ccc(Cl)c(Oc2c(CO)nc(N3CCOCC3)nc2NS(=O)(=O)c2ccc(C(C)(C)C)cc2)c1, COC(=O)c1cccc(-c2nnc(-c3ccc(N4CCOCC4)cc3)o2)c1 is higher in melting point: 103 °C for the first, 150 to 151 °C for the second.

First: Cc1cc(Cc2nnc(Nc3ccc(Cl)cc3)c3ccccc23)cc(C)n1
Second: O=S(=O)(Nc1ncnc(Cl)c1Cc1ccc2ccccc2c1)c1ccc(Cl)cc1
The melting point of the first is lower: 175 to 176 °C for the first, 197 to 199 °C for the second.

Compared with CCCn1cc2c(C3C(=O)Nc4ccc(Br)cc43)nc(NCC(O)CO)nc2n1 (stereo not given), O=C1NC(=O)C(Sc2ccc3ccccc3c2Br)S1 (stereo not given) is lower in melting point: 295 to 297 °C for the first, 128 to 129 °C for the second.

First: CCCNS(=O)(=O)c1c(C)cc(C)cc1C
Second: Cc1cc(C)c(COC2CC(n3cc(F)c(=O)[nH]c3=O)OC2CO)c(C)c1 (stereo not given)
The melting point of the first is lower: 53 to 54 °C for the first, 179 to 181 °C for the second.

Compared with C=C1CSC(=C(C#N)n2ccnc2)S1, N#CCSc1nc2cc(Cl)ccc2s1 is lower in melting point: 116 °C for the first, 96 to 97 °C for the second.

Compared with O=C1NC(N2CCN(c3cnc(Cl)cn3)CC2)c2ccccc21 (stereo not given), Fc1ccccc1-c1nc(N2CCNCC2)nc2ccccc12 is lower in melting point: 263 to 266 °C for the first, 132 to 133 °C for the second.

First: CNC(=O)c1c(-c2ccccc2)noc1C=C(N)c1ccccc1
Second: CNS(=O)(=O)c1cc(C(=O)c2c(C)oc3ccccc23)ccc1Cl
The melting point of the first is higher: 181 to 183 °C for the first, 146 °C for the second.

Compared with Cc1cc2c(s1)C(C(=O)O)CC2=O (stereo not given), CSc1cnc2cc(C)sc2c1O is higher in melting point: 137 to 139 °C for the first, 222 to 225 °C for the second.

First: COC(=O)c1cc(S(N)(=O)=O)c(F)cc1N
Second: NS(=O)(=O)c1cc2[nH]c(C(Cl)Cl)nc2cc1Cl
The melting point of the first is lower: 209 to 211 °C for the first, 225 to 227 °C for the second.

Going from COc1cccc2c1CN(c1c(F)c(F)c3c(=O)c(C(=O)O)cn(C4CC4)c3c1F)C2 to CCOC(=O)c1cn(C)c2cnc3cc(F)c(N4CCC[C@H]4CNc4ccccc4)cc3c2c1=O, the melting point falls from greater than 280 °C to 170 °C.

First: CCCCCCCCOc1ccc(-c2ccc(C(=O)O[C@@H](C)C(=O)OCCCC)cc2)cc1
Second: O=C(O)C(=O)c1ccc(OCCCCCCc2cccc(O)c2O)cc1
The melting point of the first is lower: 51 °C for the first, 127 to 130 °C for the second.

Going from COc1ccc(S(=O)(=O)N(CCNS(C)(=O)=O)c2ccc(Cl)cc2Cc2c(F)cccc2F)cc1OC to COc1ccc(CCN(C)CCCCc2ccc(NC(=O)c3cccc4c(=O)c5cc(F)ccc5sc34)cc2)cc1OC, the melting point rises from 133 °C to 145 °C.

First: CCCCCCCCCCc1ccc2cc(OS(=O)(=O)C(F)(F)F)c(SC)cc2c1
Second: CCOC(=O)C(C)(C)S(=O)(=O)c1ccc(OC)cc1
The melting point of the first is lower: 42 to 42.9 °C for the first, 196 °C for the second.

First: COc1ccc(SC#N)c([N+](=O)[O-])c1
Second: COc1cc(C)ccc1Oc1ccc([N+](=O)[O-])cc1
The melting point of the first is higher: 127 to 128 °C for the first, 78 to 80 °C for the second.

First: CCc1c(-c2ccccc2)nc(C(C)C)c(C#CI)c1-c1ccc(F)cc1
Second: CC(C)OCCOc1ccc(-c2ccc3c(c2)C=C(C(=O)O)CCN3C=O)cc1
The melting point of the first is lower: 117 to 119 °C for the first, 165 to 166 °C for the second.

First: O=C(O)CCc1cn(Cc2ccc(OCc3coc(-c4ccccc4)n3)cc2)nc1-c1cccs1
Second: CCOC(=O)c1cc(=O)c2cccc(NC(=O)c3ccc4c(c3)CC(COCc3ccccc3)O4)c2o1 (stereo not given)
The melting point of the first is lower: 145 to 146 °C for the first, 166 to 168 °C for the second.

Compared with CCOc1ccc(-c2c(Cl)c(CN3C(=O)CCC3=O)nc3sc4c(c23)CCN(C(C)=O)C4)cc1, O=C(O)C(=O)Nc1ccc2c(=O)c3c(oc2c1)C(=Cc1ccc2c(c1)OCO2)CC3 is higher in melting point: 260 to 262 °C for the first, 300 to 305 °C for the second.

Going from O=c1[nH]c2ncccc2c(=O)n1-c1ccccc1 to Oc1ccccc1C=NC1=NN(c2cccc(C(F)(F)F)c2)CC1, the melting point falls from 304 °C to 156 °C.

First: CN1CCC(Oc2ccccc2N)(c2ccccc2)CC1
Second: CS(=O)(=O)Nc1ccccc1OCCCN1CCC(OC(c2ccccc2)c2ccccc2)CC1
The melting point of the first is higher: 129 to 130 °C for the first, 106 to 107 °C for the second.

Compared with CCCCCCC(=O)Nc1ccn(C2OC(CO)C(O)C2O)c(=O)n1 (stereo not given), CCOC(=O)C1=C(COCC#N)NC(C)=C(C(=O)OC)C1c1ccccc1Cl (stereo not given) is lower in melting point: 131 to 136 °C for the first, 128 to 130 °C for the second.

First: CC1(C#CC2(C(F)(F)F)c3cc(Cl)ccc3NC(=O)N2C2CC2)CC1 (stereo not given)
Second: Cc1cccc(Oc2c[nH]c(=S)[nH]c2=O)c1
The melting point of the first is higher: 218 to 220 °C for the first, 210 °C for the second.

Compared with CC(C)[C@H](NC(=O)OC(C)(C)C)[C@H](O)C(F)(F)F, COc1cc(-c2nc(C(C)C)no2)cc2oc(=O)c(C)c(C)c12 is higher in melting point: 87 to 88 °C for the first, 142 °C for the second.

Compared with CCNc1ccccc1S(=O)(=O)C[N+](=O)[O-], O=[N+]([O-])c1ccc(NCCc2c[nH]cn2)nc1 is higher in melting point: 82 °C for the first, 162 to 163 °C for the second.

Compared with COc1nccc(C)c1NC(=O)c1cccnc1Cl, CCc1n[nH]c(CC)c1Oc1cc(Cl)cc(Cl)c1 is lower in melting point: 145 to 146 °C for the first, 114 to 115 °C for the second.
